Several values for one entry are separate records, joined by “and”; a condition that tells them apart may be missing. Equal entries are not always repeated.
Columns and labels:
VEGFR-2 = VEGFR-2 (Homo sapiens, UniProt P35968); test: In vitro VEGFR-2 tyrosine kinase inhibitory assay (Z'-LYTE, SelectScreen); type: biochemical
Protocol: The target compounds were evaluated for their in vitro inhibitory activities against EGFR, VEGFR-2, and HDAC6. The EGFR and VEGFR-2 inhibitory assays were performed at Thermo Fischer Scientific, Madison, WI, USA (SelectScreenServices@thermofisher.com). The HDAC inhibitory assays were performed at BPS Bioscience, San Diego, CA, USA (www.bpsbioscience.com). Initially, all of the synthesised target compounds were evaluated for their percent inhibitory activity against EGFR, VEGFR-2, and HDACs at 10 µM single dose concentration, in which their mean percent inhibition is summarised in (Figure 5, Tables 1 and [2]). Representative compounds were evaluated for their percent inhibitory activity against EGFR and VEGFR-2 at 6 different concentrations (0.1 nM, 1 nM, 10 nM, 100 nM, 1 µM, 10 µM) to subsequently calculate their IC50 values (Table 3). Additionally, all of the synthesised target compounds were submitted to the National Cancer Institute “NCI” Bethesda, Maryland, USA (www.dtp.nci.nih.gov), to evaluate theirs in vitro antiproliferative activities against NCI 60- cancer cell line panel.
In vitro enzyme inhibition determination for the synthesised compounds was carried out in Thermo Fischer Scientific, Madison, WI, USA (SelectScreenServices@thermofisher.com). The EGFR and VEGFR-2 tyrosine kinase % inhibitory activity at a single-dose concentration of 10 µM was performed initially then representative compounds were evaluated at single-dose concentrations of (0.1 nM, 1 nM, 10 nM, 100 nM, 1 µM) using ZYLTE technology. A fluorescence-based, coupled-enzyme format is employed in the biochemical assay and depends on the sensitivity of proteolytic cleavage to non-phosphorylated and phosphorylated peptides. Then IC50 values for selected compounds were determined by GraphPad Prism at Misr international university.

786-0 = test: NCI one-dose screen; type: cell-based, human; conditions: Renal 786-0, 10 µM single dose
Summary of the method: (§1)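 One concentration (10 μM) applied to each line of the full NCI-60 panel; percent growth compared against untreated cells.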

ACHN = test: NCI one-dose screen; type: cell-based, human; conditions: Renal ACHN, 10 µM single dose
Summary of the method: as §1

CCRF-CEM = test: NCI one-dose screen; type: cell-based, human; conditions: Leukemia CCRF-CEM, 10 µM single dose
Summary of the method: as §1

COLO 205 = test: NCI one-dose screen; type: cell-based, human; conditions: Colon COLO 205, 10 µM single dose
Summary of the method: as §1

HCT-116 = test: NCI one-dose screen; type: cell-based, human; conditions: Colon HCT-116, 10 µM single dose
Summary of the method: as §1

HT29 = test: NCI one-dose screen; type: cell-based, human; conditions: Colon HT29, 10 µM single dose
Summary of the method: as §1

IGROV1 = test: NCI one-dose screen; type: cell-based, human; conditions: Ovarian IGROV1, 10 µM single dose
Summary of the method: as §1

K-562 = test: NCI one-dose screen; type: cell-based, human; conditions: Leukemia K-562, 10 µM single dose
Summary of the method: as §1

LOX IMVI = test: NCI one-dose screen; type: cell-based, human; conditions: Melanoma LOX IMVI, 10 µM single dose
Summary of the method: as §1

M14 = test: NCI one-dose screen; type: cell-based, human; conditions: Melanoma M14, 10 µM single dose
Summary of the method: as §1

MALME-3M = test: NCI one-dose screen; type: cell-based, human; conditions: Melanoma MALME-3M, 10 µM single dose
Summary of the method: as §1

MOLT-4 = test: NCI one-dose screen; type: cell-based, human; conditions: for Growth Percent: Leukemia MOLT-4, 10 µM single dose
Summary of the method: (§2)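 At 10 μM, a single concentration, compounds were evaluated for antiproliferative effect in the NCI 60-line screen, with growth expressed relative to untreated control cells.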

NCI-H226 = test: NCI one-dose screen; type: cell-based, human; conditions: NSCLC NCI-H226, 10 µM single dose
Summary of the method: (§3)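 Compounds were tested at a single dose of 10 μM across the full NCI-60 cell line panel. Growth was expressed as percent growth relative to untreated control cells, reported as percent inhibition.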

NCI-H23 = test: NCI one-dose screen; type: cell-based, human; conditions: for Growth Percent: NSCLC NCI-H23, 10 µM single dose
Summary of the method: as §2

NCI-H522 = test: NCI one-dose screen; type: cell-based, human; conditions: for Growth Percent: NSCLC NCI-H522, 10 µM single dose
Summary of the method: as §3

NCI/ADR-RES = test: NCI one-dose screen; type: cell-based, human; conditions: Ovarian NCI/ADR-RES, 10 µM single dose
Summary of the method: as §1

SF-268 = test: NCI one-dose screen; type: cell-based, human; conditions: for Growth Percent: CNS SF-268, 10 µM single dose
Summary of the method: as §2

SK-MEL-2 = test: NCI one-dose screen; type: cell-based, human; conditions: Melanoma SK-MEL-2, 10 µM single dose
Summary of the method: (§4)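 Single 10 μM dose, NCI-60 panel; read-out = % growth vs untreated controls → % inhibition.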

SNB-19 = test: NCI one-dose screen; type: cell-based, human; conditions: CNS SNB-19, 10 µM single dose
Summary of the method: as §4

SNB-75 = test: NCI one-dose screen; type: cell-based, human; conditions: for Growth Percent: CNS SNB-75, 10 µM single dose
Summary of the method: as §3

SR = test: NCI one-dose screen; type: cell-based, human; conditions: Leukemia SR, 10 µM single dose
Summary of the method: as §1

SW-620 = test: NCI one-dose screen; type: cell-based, human; conditions: Colon SW-620, 10 µM single dose
Summary of the method: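 Following the standard NCI-60 protocol, compounds were applied once at 10 μM to all 60 cancer lines. Read-out is percent growth versus untreated controls, expressed as inhibition %.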

T-47D = test: NCI one-dose screen; type: cell-based, human; conditions: Breast T-47D, 10 µM single dose
Summary of the method: as §1

UACC-62 = test: NCI one-dose screen; type: cell-based, human; conditions: Melanoma UACC-62, 10 µM single dose
Summary of the method: as §1

Chain of VEGFR-2 (P35968 20-1356): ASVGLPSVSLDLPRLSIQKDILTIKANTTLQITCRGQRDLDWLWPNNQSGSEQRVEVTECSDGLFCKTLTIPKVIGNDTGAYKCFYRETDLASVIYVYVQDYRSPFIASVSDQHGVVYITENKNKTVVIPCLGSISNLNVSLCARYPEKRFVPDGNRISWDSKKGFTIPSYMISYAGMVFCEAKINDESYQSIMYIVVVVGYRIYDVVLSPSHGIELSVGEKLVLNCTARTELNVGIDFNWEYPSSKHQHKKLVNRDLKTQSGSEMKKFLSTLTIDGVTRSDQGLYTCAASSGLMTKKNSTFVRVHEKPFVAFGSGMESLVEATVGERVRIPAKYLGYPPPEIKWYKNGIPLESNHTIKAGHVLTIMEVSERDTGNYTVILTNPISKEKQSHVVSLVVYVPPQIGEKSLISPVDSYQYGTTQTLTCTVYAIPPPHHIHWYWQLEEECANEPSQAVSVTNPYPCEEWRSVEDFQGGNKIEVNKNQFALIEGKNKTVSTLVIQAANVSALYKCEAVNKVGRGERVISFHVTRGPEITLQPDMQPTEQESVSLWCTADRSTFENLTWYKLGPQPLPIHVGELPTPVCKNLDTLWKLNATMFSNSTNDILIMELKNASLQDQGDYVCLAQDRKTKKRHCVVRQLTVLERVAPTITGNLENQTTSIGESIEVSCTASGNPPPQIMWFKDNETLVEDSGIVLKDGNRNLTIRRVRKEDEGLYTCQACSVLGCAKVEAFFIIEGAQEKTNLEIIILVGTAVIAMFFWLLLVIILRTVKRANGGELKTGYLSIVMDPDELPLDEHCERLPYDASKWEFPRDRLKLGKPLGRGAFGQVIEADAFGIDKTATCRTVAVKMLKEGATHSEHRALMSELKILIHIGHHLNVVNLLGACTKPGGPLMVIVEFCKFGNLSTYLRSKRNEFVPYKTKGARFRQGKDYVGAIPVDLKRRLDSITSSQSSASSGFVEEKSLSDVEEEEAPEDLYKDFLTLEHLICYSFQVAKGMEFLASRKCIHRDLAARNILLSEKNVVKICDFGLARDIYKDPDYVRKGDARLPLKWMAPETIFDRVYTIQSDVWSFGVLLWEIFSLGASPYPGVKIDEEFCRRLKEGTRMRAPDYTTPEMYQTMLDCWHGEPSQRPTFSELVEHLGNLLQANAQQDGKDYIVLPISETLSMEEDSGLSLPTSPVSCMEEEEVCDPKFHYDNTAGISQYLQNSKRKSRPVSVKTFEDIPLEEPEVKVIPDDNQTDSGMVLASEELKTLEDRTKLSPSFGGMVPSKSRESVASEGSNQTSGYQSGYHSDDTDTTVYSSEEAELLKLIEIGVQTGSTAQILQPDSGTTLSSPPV

SMILES | inhibition at 10 µM (VEGFR-2; 10 µM single dose) | Growth Percent (786-0) | Growth Percent (ACHN) | Growth Percent (CCRF-CEM) | Growth Percent (COLO 205) | Growth Percent (HCT-116) | Growth Percent (HT29) | Growth Percent (IGROV1) | Growth Percent (K-562) | Growth Percent (LOX IMVI) | Growth Percent (M14) | Growth Percent (MALME-3M) | Growth Percent (MOLT-4) | Growth Percent (NCI-H226) | Growth Percent (NCI-H23) | Growth Percent (NCI-H522) | Growth Percent (NCI/ADR-RES) | Growth Percent (SF-268) | Growth Percent (SK-MEL-2) | Growth Percent (SNB-19) | also measured
Cc1c(C(=O)NO)sc2ncnc(Nc3ccc(NC(=O)Nc4cccc(C(F)(F)F)c4)cc3)c12 [Compound 7c, 1–(4-(6-(hydroxycarbamoyl)-5-methylthieno[2,3-d]pyrimidin-4-ylamino)phenyl)-3–(3-(trifluoromethyl)phenyl)urea] | 104% | 108.4% and 108.43% | 94.84% | 101.6% | 103.3% and 103.35% | 97.9% and 97.94% | 97.2% and 97.28% | 97.6% and 97.68% | 91.7% and 91.72% | 90.9% and 90.99% | 102.4% and 102.43% | 105.0% and 105.06% | 88.2% and 88.24% | 99.2% and 99.29% | 88.9% and 88.92% | 88.3% and 88.38% | 97.6% and 97.66% | 89.2% | 108.5% and 108.54% | 90.8% and 90.81% | inhibition at 0.0001 µM (VEGFR-2; 0.1 nM compound, 10 μM ATP, read-out: % Inhibition mean, KDR (VEGFR2)): 6%; inhibition at 0.001 µM (VEGFR-2; 1 nM compound, 10 μM ATP, read-out: % Inhibition mean, KDR (VEGFR2)): 6%; inhibition at 0.01 µM (VEGFR-2; 10 nM compound, 10 μM ATP, read-out: % Inhibition mean, KDR (VEGFR2)): 2%; inhibition at 0.1 µM (VEGFR-2; 100 nM compound, 10 μM ATP, read-out: % Inhibition mean, KDR (VEGFR2)): 36%; inhibition at 1 µM (VEGFR-2; 1000 nM compound, 10 μM ATP, read-out: % Inhibition mean, KDR (VEGFR2)): 90%; Mean % inhibition VEGFR-2 (VEGFR-2; 10 µM single dose): 100%; IC50 (VEGFR-2; read-out: IC50 in enzyme assays VEGFR-2): 191 nM; inhibition at 10 µM (MOLT-4; Homo sapiens, leukaemia MOLT-4, 10 μM): 11.8%; inhibition at 10 µM (NCI-H23; Homo sapiens, NSCLC NCI-H23, 10 μM): 11.1%; inhibition at 10 µM (NCI-H522; Homo sapiens, NSCLC NCI-H522, 10 μM): 11.7%; inhibition at 10 µM (SF-268; Homo sapiens, CNS SF-268, 10 μM): 10.8%; Growth Percent (SNB-75): 54.0% and 54.04%; inhibition at 10 µM (SNB-75; Homo sapiens, CNS SNB-75, 10 μM): 46%; Growth Percent (SR): 94.0% and 94.07%; Growth Percent (SW-620): 108.7% and 108.79%; Growth Percent (T-47D): 96.3% and 96.39%; Growth Percent (UACC-62): 96.4%
Cc1c(C(=O)NCCC(=O)NO)sc2ncnc(Nc3ccc(NC(=O)Nc4ccccc4)cc3)c12 [Compound 11a, 1–(4-(6-((3-(hydroxyamino)-3-oxopropyl)carbamoyl)-5-methylthieno[2,3-d]pyrimidin-4-ylamino)phenyl)-3-phenylurea] | 47% | 98.2% and 98.21% | 101.6% and 101.68% | 106.8% and 106.84% | 113.5% and 113.57% | 102.9% and 102.94% | 104.0% and 104.03% | 103.0% and 103.03% | 108.3% and 108.34% | 95.3% and 95.38% | 99.1% and 99.16% | 103.6% and 103.62% | 110.5% and 110.52% | 90.4% and 90.42% | 96.1% and 96.12% | 92.8% | 99.0% and 99.07% | 96.8% and 96.85% | 107.0% and 107.07% | 97.5% and 97.59% | Growth Percent (SNB-75): 79.7% and 79.72%; Growth Percent (SR): 108.7% and 108.77%; Growth Percent (SW-620): 103.0% and 103.02%; Growth Percent (T-47D): 107.7% and 107.73%; Growth Percent (UACC-62): 98.7% and 98.79%
COc1cccc(NC(=O)Nc2ccc(Nc3ncnc4sc(C(=O)NCCC(=O)NO)c(C)c34)cc2)c1 [Compound 11b, 1–(4-(6-((3-(hydroxyamino)-3-oxopropyl)carbamoyl)-5-methylthieno[2,3-d]pyrimidin-4-ylamino)phenyl)-3–(3-methoxyphenyl)urea] | 75% | 101.3% and 101.34% | 106.0% and 106.03% | 105.0% and 105.08% | 113.1% and 113.15% | 101.6% and 101.62% | 104.4% and 104.43% | 104.1% and 104.14% | 115.1% and 115.17% | 91.6% and 91.65% | 92.9% and 92.95% | 107.0% and 107.03% | 107.2% and 107.22% | 87.7% and 87.79% | 96.6% and 96.67% | 94.6% and 94.61% | 102.4% and 102.42% | 94.3% and 94.39% | 116.4% and 116.43% | 98.1% | Growth Percent (SNB-75): 83.7% and 83.79%; Growth Percent (SR): 112.2% and 112.27%; Growth Percent (SW-620): 103.0% and 103.05%; Growth Percent (T-47D): 100.1%; Growth Percent (UACC-62): 95.3% and 95.33%
Cc1c(C(=O)NCCC(=O)NO)sc2ncnc(Nc3ccc(NC(=O)Nc4cccc(C(F)(F)F)c4)cc3)c12 [Compound 11c, 1–(4-(6-((3-(hydroxyamino)-3-oxopropyl)carbamoyl)-5-methylthieno[2,3-d]pyrimidin-4-ylamino)phenyl)-3–(3-(trifluoromethyl)phenyl)urea] | 91% | 115.6% and 115.64% | 101.7% and 101.74% | 98.8% and 98.82% | 112.9% | 107.9% and 107.91% | 109.8% and 109.85% | 102.2% and 102.29% | 103.6% and 103.67% | 94.5% and 94.53% | 107.0% and 107.01% | 112.1% and 112.11% | 105.7% and 105.79% | 97.9% | 100.0% and 100.01% | 94.3% and 94.36% | 103.1% and 103.18% | 93.3% and 93.37% | 108.7% and 108.73% | 93.6% and 93.62% | Growth Percent (SNB-75): 78.8%; Growth Percent (SR): 101.0% and 101.07%; Growth Percent (SW-620): 104.3% and 104.35%; Growth Percent (T-47D): 101.4% and 101.45%; Growth Percent (UACC-62): 99.6% and 99.62%

— paper PMC8253220, “Molecular design, synthesis and in vitro biological evaluation of thienopyrimidine–hydroxamic acids as chimeric kinase HDAC inhibitors: a challenging approach to combat cancer” (Journal of Enzyme Inhibition and Medicinal Chemistry, 2021)
